Results on 2 molecules are retold here after publication doi:10.1101/471615v1 (biorxiv, 2018).

The assay addresses T1, GAK (InCELL Pulse) (Homo sapiens, UniProt O14976).
T1 sequence (O14976 2-1311): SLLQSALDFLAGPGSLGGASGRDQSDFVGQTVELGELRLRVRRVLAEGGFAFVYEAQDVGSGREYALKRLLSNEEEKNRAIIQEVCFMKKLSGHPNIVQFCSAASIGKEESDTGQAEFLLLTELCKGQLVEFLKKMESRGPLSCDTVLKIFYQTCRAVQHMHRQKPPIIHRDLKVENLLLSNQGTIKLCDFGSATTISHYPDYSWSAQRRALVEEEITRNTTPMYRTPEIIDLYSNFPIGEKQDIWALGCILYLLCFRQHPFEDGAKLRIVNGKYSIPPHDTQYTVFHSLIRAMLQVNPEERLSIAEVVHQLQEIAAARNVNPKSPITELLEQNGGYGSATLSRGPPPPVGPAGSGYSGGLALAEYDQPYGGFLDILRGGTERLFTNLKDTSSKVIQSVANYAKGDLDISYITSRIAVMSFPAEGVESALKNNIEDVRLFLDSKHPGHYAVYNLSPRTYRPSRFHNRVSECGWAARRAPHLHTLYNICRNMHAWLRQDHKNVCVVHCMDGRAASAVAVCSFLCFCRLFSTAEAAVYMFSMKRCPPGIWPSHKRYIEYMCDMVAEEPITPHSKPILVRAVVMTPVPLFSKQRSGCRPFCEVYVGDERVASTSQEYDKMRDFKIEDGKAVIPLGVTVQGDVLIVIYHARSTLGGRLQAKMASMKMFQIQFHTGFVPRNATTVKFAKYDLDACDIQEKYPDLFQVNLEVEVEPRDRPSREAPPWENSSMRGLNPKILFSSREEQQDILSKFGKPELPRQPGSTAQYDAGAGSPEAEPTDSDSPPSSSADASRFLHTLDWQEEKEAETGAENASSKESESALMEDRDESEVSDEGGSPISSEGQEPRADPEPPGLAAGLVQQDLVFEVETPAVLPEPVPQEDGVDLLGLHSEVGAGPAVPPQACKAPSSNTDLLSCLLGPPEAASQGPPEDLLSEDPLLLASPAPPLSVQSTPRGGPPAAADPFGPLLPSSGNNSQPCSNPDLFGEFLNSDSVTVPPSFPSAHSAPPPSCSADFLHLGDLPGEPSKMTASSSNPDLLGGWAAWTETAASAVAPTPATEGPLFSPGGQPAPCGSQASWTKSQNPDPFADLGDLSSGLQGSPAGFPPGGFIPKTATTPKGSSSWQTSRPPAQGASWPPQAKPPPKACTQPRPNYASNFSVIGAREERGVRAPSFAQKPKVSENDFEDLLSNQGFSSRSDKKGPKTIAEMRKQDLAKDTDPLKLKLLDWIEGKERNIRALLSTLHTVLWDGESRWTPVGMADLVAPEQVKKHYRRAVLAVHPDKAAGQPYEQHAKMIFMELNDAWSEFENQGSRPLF
The experiment in a line: InCELL Pulse cellular target engagement. It counts as cell-based. Conditions: in cells.

Molecule `COc1cc2nccc(Nc3cc(OC)c(OC)c(OC)c3)c2cc1OC` [compound 15, 6,7-disubstituted methoxy (15)] displayed an IC50 of 0.045 µM.
The same measure for `COc1cc(Nc2ncnc3ccc(C(F)(F)F)cc23)cc(OC)c1OC` [compound 19, quinazoline (19)]: 6.7 µM.
